Laboratory results: patent publication US9765037B2, “Compositions and methods for treating toxoplasmosis, cryptosporidiosis, and other apicomplexan protozoan related diseases” (University of Washington Through its Center for …, priority 2010, dated 2017)
Where two headings read alike, the source gives them in different places.

Tests used:
CpCDPK1 = CpCDPK1 (Cryptosporidium parvum (strain Iowa II), UniProt A3FQ16); test: biochemical; type: biochemical
TgCDPK1 = TgCDPK1 (Toxoplasma gondii, UniProt Q9BJF5); type: biochemical; settings: read-out: IC50 (μM) TgCDPK1
[1] = Table 8, read-out: IC50 (μM) CpCDPK1

Sequence of CpCDPK1 (A3FQ16 1-538): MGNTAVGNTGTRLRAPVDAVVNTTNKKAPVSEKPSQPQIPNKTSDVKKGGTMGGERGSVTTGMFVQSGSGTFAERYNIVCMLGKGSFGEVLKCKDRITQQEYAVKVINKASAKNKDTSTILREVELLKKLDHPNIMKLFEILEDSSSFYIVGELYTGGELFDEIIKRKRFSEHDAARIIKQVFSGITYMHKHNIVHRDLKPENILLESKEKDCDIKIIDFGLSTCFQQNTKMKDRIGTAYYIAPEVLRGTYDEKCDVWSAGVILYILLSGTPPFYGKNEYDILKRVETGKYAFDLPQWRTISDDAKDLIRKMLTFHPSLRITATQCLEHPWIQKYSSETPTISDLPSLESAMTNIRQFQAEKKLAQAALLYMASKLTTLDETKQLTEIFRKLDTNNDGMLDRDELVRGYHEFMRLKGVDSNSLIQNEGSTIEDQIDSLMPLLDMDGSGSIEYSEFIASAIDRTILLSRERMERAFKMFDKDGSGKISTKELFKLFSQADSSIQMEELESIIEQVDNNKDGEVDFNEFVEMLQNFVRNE
Sequence of TgCDPK1 (Q9BJF5 1-507): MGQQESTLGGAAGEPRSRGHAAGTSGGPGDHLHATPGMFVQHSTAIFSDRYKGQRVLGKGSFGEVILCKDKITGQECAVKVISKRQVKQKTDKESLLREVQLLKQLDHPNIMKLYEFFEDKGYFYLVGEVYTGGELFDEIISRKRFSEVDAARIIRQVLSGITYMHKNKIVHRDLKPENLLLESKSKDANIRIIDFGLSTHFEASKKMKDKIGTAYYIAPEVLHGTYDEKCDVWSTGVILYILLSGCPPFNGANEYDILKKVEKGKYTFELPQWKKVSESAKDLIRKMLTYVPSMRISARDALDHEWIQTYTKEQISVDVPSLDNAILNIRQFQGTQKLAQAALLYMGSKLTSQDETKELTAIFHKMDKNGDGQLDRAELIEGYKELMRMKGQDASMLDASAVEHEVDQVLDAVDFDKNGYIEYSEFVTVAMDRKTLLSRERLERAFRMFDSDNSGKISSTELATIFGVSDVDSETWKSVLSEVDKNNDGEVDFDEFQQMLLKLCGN

Compound	IC50 (CpCDPK1; read-out: IC50 (μM) CpCDPK1)	IC50 (TgCDPK1)	IC50 (CpCDPK1; read-out: CpCDPK1 IC50)	IC50 (CpCDPK1; [1])	IC50 (CpCDPK1; Table 3, average of three assays ± (SEM), read-out: CpCDPK1 IC50)
Cn1nc(Cc2cccc3ccccc23)c2c(N)ncnc21 [Compound 5a, 1-methyl-3-(naphthalen-1-ylmethyl)-1H-pyrazolo[3,4-d]pyrimidin-4-amine]	0.413 µM	0.458 µM			
C#CCn1nc(Cc2cccc3ccccc23)c2c(N)ncnc21 [Compound 5b, 3-(naphthalen-1-ylmethyl)-1-(prop-2-ynyl)-1H-pyrazolo[3,4-d]pyrimidin-4-amine]		0.086 µM	0.13 µM		
NC(=O)Cn1nc(Cc2cccc3ccccc23)c2c(N)ncnc21 [Compound 5c, 2-(4-amino-3-(naphthalen-1-ylmethyl)-1H-pyrazolo[3,4-d]pyrimidin-1-yl)acetamide]		1.92 µM	2 µM	2.04 µM	
Nc1ncnc2c1c(Cc1cccc3ccccc13)nn2Cc1ccccc1 [Compound 5e, 1-benzyl-3-(naphthalen-1-ylmethyl)-1H-pyrazolo[3,4-d]pyrimidin-4-amine]		1.85 µM		> 3 µM	> 3 µM
CC(=O)N1CCC(n2nc(Cc3cccc4ccccc34)c3c(N)ncnc32)CC1 [Compound 5j, 1-(4-(4-amino-3-(naphthalen-1-ylmethyl)-1H-pyrazolo[3,4-d]pyrimidin-1-yl)piperidin-1-yl)ethanone]		0.091 µM	0.1 µM	0.103 µM	
CC(=O)N1CCC(Cn2nc(Cc3cccc4ccccc34)c3c(N)ncnc32)CC1 [Compound 5k, 1-(4-((4-amino-3-(naphthalen-1-ylmethyl)-1H-pyrazolo[3,4-d]pyrimidin-1-yl)methyl)piperidin-1-yl)ethanone]	0.36 µM	0.208 µM			
CC(=O)N1CCC(CCn2nc(Cc3cccc4ccccc34)c3c(N)ncnc32)CC1 [Compound 5l, 1-(4-(2-(4-amino-3-(naphthalen-1-ylmethyl)-1H-pyrazolo[3,4-d]pyrimidin-1-yl)ethyl)piperidin-1-yl)ethanone]	0.179 µM	0.104 µM			
CS(=O)(=O)N1CCC(Cn2nc(Cc3cccc4ccccc34)c3c(N)ncnc32)CC1 [Compound 5q, 1-((1-(methylsulfonyl)piperidin-4-yl)methyl)-3-(naphthalen-1-ylmethyl)-1H-pyrazolo[3,4-d]pyrimidin-4-amine]		0.563 µM	0.7 µM	0.691 µM	
CS(=O)(=O)N1CCC(CCn2nc(Cc3cccc4ccccc34)c3c(N)ncnc32)CC1 [Compound 5r, 1-(2-(1-(methylsulfonyl)piperidin-4-yl)ethyl)-3-(naphthalen-1-ylmethyl)-1H-pyrazolo[3,4-d]pyrimidin-4-amine]		0.117 µM	0.2 µM	0.194 µM	
CC(C)n1nc(-c2cccc(Cl)c2)c2c(N)ncnc21 [Compound 7b, 3-(3-chlorophenyl)-1-isopropyl-1H-pyrazolo[3,4-d]pyrimidin-4-amine]		0.02 µM	0.12 µM	0.115 µM	
CC(C)c1ccc(-c2nn(C(C)C)c3ncnc(N)c23)cc1 [Compound 7d, 1-isopropyl-3-(4-isopropylphenyl)-1H-pyrazolo[3,4-d]pyrimidin-4-amine]		0.048 µM	0.21 µM	0.213 µM	
Cc1ccc(-c2nn(C(C)C)c3ncnc(N)c23)cc1 [Compound 7f, 1-isopropyl-3-p-tolyl-1H-pyrazolo[3,4-d]pyrimidin-4-amine]	0.087 µM	0.013 µM			
Cc1ccc(-c2nn(C(C)C)c3ncnc(N)c23)cc1C [Compound 7h, 3-(3,4-dimethylphenyl)-1-isopropyl-1H-pyrazolo[3,4-d]pyrimidin-4-amine]		0.009 µM	0.022 µM		
Cc1cc(-c2nn(C(C)C)c3ncnc(N)c23)ccc1F [Compound 7i, 3-(4-fluoro-3-methylphenyl)-1-isopropyl-1H-pyrazolo[3,4-d]pyrimidin-4-amine]	0.053 µM	0.009 µM			
CC(C)n1nc(-c2cccc3ccccc23)c2c(N)ncnc21 [Compound 7o, 1-isopropyl-3-(naphthalen-1-yl)-1H-pyrazolo[3,4-d]pyrimidin-4-amine]		0.326 µM	0.62 µM		
